Here are results for 14 molecules from patent US20110282066A1, “SCREENING METHOD FOR SUBSTANCE USEFUL AS AGENT FOR TREATING PROSTATE CANCER” (priority 2009, published 2011).

In general, IC50 refers to the midpoint of a concentration-inhibition curve.

The structures appear in SMILES notation.

Assay [1] relates to testosterone production in the CWR22R tumor. Put plainly: Testosterone production suppression in the tumor of a CWR22R tumor-bearing mouse. The settings on record: 22Rv1, 10 mg/kg oral, androstenedione 1 ng/100 mm^3 into the tumor an hour later, dissection an hour after that, read-out: Inh (%) testosterone production suppression rate. It is filed as in vivo, nude mouse. The source says: Inhibition rate (%)=100×(average value of the hormone concentration in the solvent for administering test substance-administered group−average value of the hormone concentration in the test substance-administered group)/(average value of the hormone concentration in the solvent for administering test substance-administered group−average value of the background hormone concentration)
A CWR22R tumor was excised from a CWR22R subcutaneous tumor-bearing nude mouse. The excised tumor was segmented to become tumor specimens with size of about 5 mm per specimen. The tumor specimens were washed with a 20% serum-containing RPMI1640 culture medium twice and then stirred for about 20 minutes in a 0.1% protease and 20% serum-containing RPMI1640 culture medium. Supernatant was recovered to recover cells through centrifugation. These procedures were repeated as necessary, recovered cells were collected, and thereby the cell solution was prepared. After the cell number was counted, the cell solution was adjusted to 2×10^7 cells/mL. The same amount of the cell solution and Matrigel were mixed and adjusted to the final value of 1×10^7 cells/mL. 0.1 mL of the cell Matrigel mixture prepared in the above-described manner was subcutaneously injected to one site of the back of a male nude mouse with testectomy for the transplant. After the transplant, at a time point when the tumor volume reached 100 mm^3 or more, grouping was performed based on the tumor volume to conduct the following experiments.
Test substances were orally administered to the CWR22R subcutaneous tumor-bearing mouse. After an hour, that is, an hour before dissection, androstenedione was administered into the tumor to yield a level of 1 ng/100 mm^3 in the tumor. The composition of the liquid for administering androstenedione included 0.000075% DMF/0.00005% polysorbate 80/9.999875% saline/90% Matrigel. Tumor excision was performed through the dissection, and the tumor was weighed and then frozen for preservation. For the purpose of measuring the background value, the tumor of the mouse to which only the solvent for administering test substances had been orally administered was excised. Subsequently, under the ice cooling, the liquid for administering androstenedione was added thereto, and the resultant was subjected to quick-freezing for preservation.
To the tumor sample preserved through freezing was added a 0.2 M Na-K phosphate buffer (pH 7.4), and thereby a tumor homogenate was prepared under ice cooling by using a homogenizer (polytron). Tert-butyl methyl ether with a 6-fold capacity was added to the tumor homogenate, followed by centrifugation (3000 rpm, 5 min), and the supernatant was transferred to another test tube. While the test tube was maintained at 40° C. in a heat block, the solvent was evaporated by nitrogen gas. 2% BSA-containing 10 mM Tris-Cl buffer (pH 7.4) was added to the test tube and mixed to obtain an extract, and the testosterone concentration was measured by using DELFIA (trademark) Testosterone Reagents R050-201 (manufactured by PerkinElmer, Inc.).
The testosterone production suppression rates (%) of some Reference Example compounds in the tumor of CWR22R tumor-bearing mouse are shown in Table 25. Ex represents a Reference Example number, Inh represents the testosterone production suppression rates upon administration of 10 mg/kg of the Reference Example compounds.

In a further assay the target is T1, human 17βHSD type 3 (Homo sapiens, UniProt P37058).
T1 construct: A full-length cDNA encoding human 17βHSD type 3 used in the pharmacological test; made in house; host or cells: human fetus kidney-derived 293 cells (transfected; supernatant of disrupted cells, not purified)
T1 sequence (P37058 1-310): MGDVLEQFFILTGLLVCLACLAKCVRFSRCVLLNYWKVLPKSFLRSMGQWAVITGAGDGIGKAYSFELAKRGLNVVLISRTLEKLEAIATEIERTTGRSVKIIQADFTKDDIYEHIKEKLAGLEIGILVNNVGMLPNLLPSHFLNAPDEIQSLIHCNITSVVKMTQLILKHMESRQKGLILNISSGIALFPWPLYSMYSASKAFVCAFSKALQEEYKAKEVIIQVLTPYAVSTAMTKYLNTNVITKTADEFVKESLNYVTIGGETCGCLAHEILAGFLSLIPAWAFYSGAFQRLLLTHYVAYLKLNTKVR
Put plainly: Measurement of enzyme activity of human 17βHSD type 3. Type of assay: biochemical. The settings on record: enzyme source: supernatant of transformed 293 cells; read-out: Type3 IC50. On the procedure: A full-length cDNA encoding human 17βHSD type 3 used in the pharmacological test of this test example was obtained by the PCR method using a cDNA derived from human testis as a template. The nucleotide sequence of the obtained cDNA was analyzed by the dideoxyterminator method, and the clone matched with the known human 17βHSD type 3 sequence (GenBank accession No. BC034281) was selected. Subsequently, human fetus kidney-derived cell line, 293 cells, were transformed with a plasmid containing the cDNA, and the cells were collected 24 hours later. […]
Enzyme activity was measured referring to Trevor M. Penning, et al., Biochem. J., 351, 67-77, (2000). Specifically, using a 100 mM potassium phosphate buffer (pH 6.0), (1) the enzyme purified in Section 1 at a final concentration of 10 μg/mL, (2) androstenedione at a final concentration of 300 nM, (3) NADPH at a final concentration of 200 μM, and (4) a test substance, were mixed to react at room temperature for 2 hours, and then the amount of testosterone produced was measured using DELFIA (trademark) Testosterone Reagents R050-201 (manufactured by PerkinElmer). […] Then, IC50 values were calculated by the Logistic regression method.

As for `O=C(O)c1cccc(-n2c(Cc3ccc(Cl)cc3)nc3cc(C(F)(F)F)ccc32)c1` [compound 41, 3-[2-(4-chlorobenzyl)-5-(trifluoromethyl)-1H-benzimidazol-1-yl]benzoic acid], the inhibition at 10 mg/kg in assay [1] is 45%.

On to `O=C(O)c1cccc(-n2c(-c3ccccc3)nc3cc(C(F)(F)F)ccc32)c1` [compound 17, 3-[2-phenyl-5-(trifluoromethyl)-1H-benzimidazol-1-yl]benzoic acid], for which the inhibition at 10 mg/kg in assay [1] was found to be 75%.

Turning to `Cc1nc2cc(C(F)(F)F)ccc2n1-c1cccc(C(=O)O)c1` [compound 21, 3-[2-methyl-5-(trifluoromethyl)-1H-benzimidazol-1-yl]benzoic acid], the inhibition at 10 mg/kg in assay [1] came to 97%. On the same count and under the same terms, as for `O=C(O)c1cccc(-n2c(C(F)(F)F)nc3cc(C(F)(F)F)ccc32)c1` [Reference Example 54, 3-[2,5-bis(trifluoromethyl)-1H-benzimidazol-1-yl]benzoic acid], the figure is 99%.

Consider `O=C(O)c1cccc(-n2c(COc3ccccc3)nc3cc(C(F)(F)F)ccc32)c1` [compound 44, 3-[2-phenoxymethyl-5-(trifluoromethyl)-1H-benzimidazol-1-yl]benzoic acid], for which the IC50 at human 17βHSD type 3 was above 10 µM. For `COCCc1cn(-c2cccc(C(=O)O)c2)c2ccc(C(F)(F)F)cc12` [Reference Example 47, 3-[3-(2-methoxyethyl)-5-(trifluoromethyl)-1H-indol-1-yl]benzoic acid], the inhibition at 10 mg/kg in assay [1] came out at 33%.

With `CCCc1nc2cc(C(F)(F)F)ccc2n1-c1cccc(C(=O)O)c1` [compound 23, 3-[2-propyl-5-(trifluoromethyl)-1H-benzimidazol-1-yl]benzoic acid], the inhibition at 10 mg/kg in assay [1] stood at 96%. For `O=C(O)c1cccc(-n2c(Cc3cccc(F)c3)nc3cc(C(F)(F)F)ccc32)c1` [compound 39, 3-[2-(3-fluorobenzyl)-5-(trifluoromethyl)-1H-benzimidazol-1-yl]benzoic acid], the inhibition at 10 mg/kg in assay [1] was determined as 31%. For `O=C(O)c1cccc(-n2c(COc3ccc(F)cc3)nc3cc(C(F)(F)F)ccc32)c1` [compound 45], the inhibition at 10 mg/kg in assay [1] was found to be 94%. In the case of `O=C(O)c1cccc(-n2cnc3cc(C(F)(F)F)ccc32)c1` [compound 20, 3-[5-(trifluoromethyl)-1H-benzimidazol-1-yl]benzoic acid], the inhibition at 10 mg/kg in assay [1] stood at 89%. On the same count and under the same terms, as for `O=C(O)c1cccc(-n2c(Cc3ccc(F)cc3)nc3cc(C(F)(F)F)ccc32)c1` [compound 40, 3-[2-(4-fluorobenzyl)-5-(trifluoromethyl)-1H-benzimidazol-1-yl]benzoic acid], the figure is 49%; as for `O=C(O)c1cccc(-n2c(Cc3ccccc3)nc3cc(C(F)(F)F)ccc32)c1` [compound 38, 3-[2-benzyl-5-(trifluoromethyl)-1H-benzimidazol-1-yl]benzoic acid], 66%. With `COc1nc2cc(C(F)(F)F)ccc2n1-c1cccc(C(=O)O)c1` [compound 32, 3-[2-methoxy-5-(trifluoromethyl)-1H-benzimidazol-1-yl]benzoic acid], the IC50 at human 17βHSD type 3 is above 10 µM. `Cc1cccc(-c2nc3cc(C(F)(F)F)ccc3n2-c2cccc(C(=O)O)c2)c1` [compound 36, 3-[2-(3-methylphenyl)-5-(trifluoromethyl)-1H-benzimidazol-1-yl]benzoic acid]: in assay [1], the inhibition at 10 mg/kg worked out at 45%.
